We go through 24 molecules from patent publication US8614201B2 (Janssen Pharmaceutica NV, priority 2009, dated 2013).

Chain of Human TRPA1 (O75762 whole entry): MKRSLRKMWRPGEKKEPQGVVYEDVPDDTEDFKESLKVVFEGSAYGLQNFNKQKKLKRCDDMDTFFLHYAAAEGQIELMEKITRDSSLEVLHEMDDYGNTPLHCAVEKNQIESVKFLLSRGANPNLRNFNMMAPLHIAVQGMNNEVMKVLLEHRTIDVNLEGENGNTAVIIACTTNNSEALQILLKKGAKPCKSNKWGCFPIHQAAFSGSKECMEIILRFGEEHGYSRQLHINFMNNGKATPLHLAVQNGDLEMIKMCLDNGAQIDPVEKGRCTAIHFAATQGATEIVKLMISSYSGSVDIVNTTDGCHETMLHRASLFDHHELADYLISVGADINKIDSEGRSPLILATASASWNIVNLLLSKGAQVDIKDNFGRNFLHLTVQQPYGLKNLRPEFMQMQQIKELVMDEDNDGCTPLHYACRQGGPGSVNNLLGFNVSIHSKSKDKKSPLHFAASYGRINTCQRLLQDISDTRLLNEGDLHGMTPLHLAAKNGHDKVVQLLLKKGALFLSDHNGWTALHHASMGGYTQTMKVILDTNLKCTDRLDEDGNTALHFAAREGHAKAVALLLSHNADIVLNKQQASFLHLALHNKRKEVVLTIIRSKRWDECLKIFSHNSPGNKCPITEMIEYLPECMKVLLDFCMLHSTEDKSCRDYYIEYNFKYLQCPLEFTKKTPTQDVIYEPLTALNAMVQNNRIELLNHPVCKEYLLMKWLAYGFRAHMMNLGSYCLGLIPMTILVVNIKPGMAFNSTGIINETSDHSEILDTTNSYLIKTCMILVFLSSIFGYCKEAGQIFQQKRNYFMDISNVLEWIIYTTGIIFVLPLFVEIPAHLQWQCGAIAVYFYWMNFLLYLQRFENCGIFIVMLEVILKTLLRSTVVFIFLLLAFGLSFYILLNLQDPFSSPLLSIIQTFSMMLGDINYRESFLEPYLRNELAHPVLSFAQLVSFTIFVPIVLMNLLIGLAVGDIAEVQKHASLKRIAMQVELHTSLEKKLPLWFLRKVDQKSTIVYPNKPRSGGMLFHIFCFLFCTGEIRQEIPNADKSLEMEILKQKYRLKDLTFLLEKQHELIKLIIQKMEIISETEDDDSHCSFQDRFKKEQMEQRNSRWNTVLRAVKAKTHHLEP

The test concerns the target Human TRPA1 (Homo sapiens, UniProt O75762). Put plainly: Alternative TRPA1 Ca2+ fluorometry assay (hTRPA1/TREx-HEK293 cells, Fluo-4, FDSS 6000). The settings on record: Fluo-4-AM, agonist 6,11-dihydro-5H-dibenzo[b,e]azepine-10-carboxylic acid methyl ester 25 nM, procedure used for Examples 184, 190 to 192, 194 to 316. It counts as cell-based. Details: expressed in transfected cells. The method in brief: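 Tetracycline-induced (50 ng/ml, 24 h) hTRPA1/TREx-HEK293 cells were loaded with Fluo-4-AM and probenecid. Compound (1% DMSO final) was added after a 12 s baseline and the Ca2+ signal followed for 14 min, then 25 nM TRPA1 agonist dibenzazepine carboxylic acid methyl ester was applied. Signal is Em540 (ex 488 nm) relative to the first baseline reading.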
Broadly, the IC50 is the concentration needed to halve the response being measured. `CC(=O)c1ccc(S(=O)(=O)N2CCC[C@H]2C(=O)NCc2cc(-c3ccc(C(F)(F)F)cc3)nc(N3CCN(c4ccccc4F)CC3)n2)cc1` [Example 274, 1-(4-Acetyl-benzenesulfonyl)-pyrrolidine-2S-carboxylic acid [2-[4-(2-fluoro-phenyl)-piperazin-1-yl]-6-(4-trifluoromethyl-phenyl)-pyrimidin-4-ylmethyl]-amide]: the IC50 was over 10000 nM.

Molecule `Cc1cc(C)c(S(=O)(=O)N2CCC[C@H]2C(=O)NCc2cc(-c3ccc(C(F)(F)F)cc3)nc(N3CCN(c4ccccc4F)CC3)n2)c(C)c1` [Example 275, 1-(2,4,6-Trimethyl-benzenesulfonyl)-pyrrolidine-2-carboxylic acid [2-[4-(2-fluoro-phenyl)-piperazin-1-yl]-6-(4-trifluoromethyl-phenyl)-pyrimidin-4-ylmethyl]-amide] displayed an IC50 of over 10000 nM.

In turn, `O=C(NCc1cc(-c2ccc(C(F)(F)F)cc2)nc(N2CCN(c3ccccc3F)CC2)n1)[C@@H]1CCCN1S(=O)(=O)c1ccccc1F` [Example 276, 1-(2-Fluoro-benzenesulfonyl)-pyrrolidine-2S-carboxylic acid [2-[4-(2-fluoro-phenyl)-piperazin-1-yl]-6-(4-trifluoromethyl-phenyl)-pyrimidin-4-ylmethyl]-amide] came in with an IC50 of 6170 nM.

As to `Cc1cccc(Cl)c1S(=O)(=O)N1CCC[C@H]1C(=O)NCc1cc(-c2ccc(C(F)(F)F)cc2)nc(N2CCN(c3ccccc3F)CC2)n1` [Example 277, 1-(2-Chloro-6-methyl-benzenesulfonyl)-pyrrolidine-2S-carboxylic acid [2-[4-(2-fluoro-phenyl)-piperazin-1-yl]-6-(4-trifluoromethyl-phenyl)-pyrimidin-4-ylmethyl]-amide], the half-inhibitory concentration (IC50) is over 10000 nM.

As to `O=C(NCc1cc(-c2ccc(C(F)(F)F)cc2)nc(N2CCN(c3ccccc3F)CC2)n1)[C@@H]1CCCN1S(=O)(=O)c1ccc(Cl)cc1F` [Example 278, 1-(4-Chloro-2-fluoro-benzenesulfonyl)-pyrrolidine-2S-carboxylic acid [2-[4-(2-fluoro-phenyl)-piperazin-1-yl]-6-(4-trifluoromethyl-phenyl)-pyrimidin-4-ylmethyl]-amide], the IC50 was over 10000 nM.

Molecule `Cc1ccccc1S(=O)(=O)N1CCC[C@H]1C(=O)NCc1cc(-c2ccc(C(F)(F)F)cc2)nc(N2CCN(c3ccccc3F)CC2)n1` [Example 279, 1-(Toluene-2-sulfonyl)-pyrrolidine-2S-carboxylic acid [2-[4-(2-fluoro-phenyl)-piperazin-1-yl]-6-(4-trifluoromethyl-phenyl)-pyrimidin-4-ylmethyl]-amide] yielded an IC50 of over 10000 nM.

Consider `Cc1ccc(S(=O)(=O)N2CCC[C@H]2C(=O)NCc2cc(-c3ccc(C(F)(F)F)cc3)nc(N3CCN(c4ccccc4F)CC3)n2)cc1Cl` [Example 280, 1-(3-Chloro-4-methyl-benzenesulfonyl)-pyrrolidine-2S-carboxylic acid [2-[4-(2-fluoro-phenyl)-piperazin-1-yl]-6-(4-trifluoromethyl-phenyl)-pyrimidin-4-ylmethyl]-amide], for which the half-inhibitory concentration (IC50) was over 10000 nM.

With `O=C(NCc1cc(-c2ccc(C(F)(F)F)cc2)nc(N2CCN(c3ccccc3F)CC2)n1)[C@@H]1CCCN1S(=O)(=O)c1cc(F)cc(F)c1` [Example 281, 1-(3,5-Difluoro-benzenesulfonyl)-pyrrolidine-2S-carboxylic acid [2-[4-(2-fluoro-phenyl)-piperazin-1-yl]-6-(4-trifluoromethyl-phenyl)-pyrimidin-4-ylmethyl]-amide], the 50% inhibitory concentration (IC50) was 5490 nM.

The molecule `CC(C)(C)c1ccc(S(=O)(=O)N2CCC[C@H]2C(=O)NCc2cc(-c3ccc(C(F)(F)F)cc3)nc(N3CCN(c4ccccc4F)CC3)n2)cc1` [Example 282, 1-(4-tert-Butyl-benzenesulfonyl)-pyrrolidine-2S-carboxylic acid [2-[4-(2-fluoro-phenyl)-piperazin-1-yl]-6-(4-trifluoromethyl-phenyl)-pyrimidin-4-ylmethyl]-amide] gave an IC50 of over 10000 nM.

For the molecule `O=C(NCc1cccc(-c2ccc(C(F)(F)F)cc2)n1)[C@@H]1CCCN1S(=O)(=O)c1ccc(F)cc1` [Example 283, 1-(4-Fluoro-benzenesulfonyl)-pyrrolidine-2S-carboxylic acid [6-(4-trifluoromethyl-phenyl)-pyridin-2-ylmethyl]-amide], the IC50 is about 724 nM.

`O=C(NCc1cccc(-c2ccc(C(F)(F)F)cc2)n1)[C@@H]1CCCN1S(=O)(=O)c1ccc(Cl)s1` [Example 284, 1-(5-Chloro-thiophene-2-sulfonyl)-pyrrolidine-2S-carboxylic acid [6-(4-trifluoromethyl-phenyl)-pyridin-2-ylmethyl]-amide]: the 50% inhibitory concentration (IC50) is about 1070 nM.

`O=C(NCc1cc(-c2ccc(C(F)(F)F)cc2)nc(-c2ccc(C(F)(F)F)cc2)n1)[C@@H]1CCCN1S(=O)(=O)c1ccc(F)cc1` [Example 285, 1-(4-Fluoro-benzenesulfonyl)-pyrrolidine-2S-carboxylic acid [2,6-bis-(4-trifluoromethyl-phenyl)-pyrimidin-4-ylmethyl]-amide] came in with a concentration for half-maximal inhibition (IC50) of 22 nM.

The molecule `O=C(NCc1cc(-c2ccc(C(F)(F)F)cc2)nc(N2CCN(c3ccccc3F)CC2)n1)[C@@H]1CCCN1S(=O)(=O)c1ccc(F)cc1` [Example 286, 1-(4-Fluoro-benzenesulfonyl)-pyrrolidine-2S-carboxylic acid [2-[4-(2-fluoro-phenyl)-piperazin-1-yl]-6-(4-trifluoromethyl-phenyl)-pyrimidin-4-ylmethyl]-amide] yielded an IC50 of about 158 nM.

In turn, `COc1ccc(Nc2nc(CNC(=O)[C@@H]3CCCN3S(=O)(=O)c3ccc(F)cc3)cc(-c3ccc4c(c3)OCO4)n2)cc1` [Example 287, 1-(4-Fluoro-benzenesulfonyl)-pyrrolidine-2S-carboxylic acid [6-benzo[1,3]dioxol-5-yl-2-(4-methoxy-phenylamino)-pyrimidin-4-ylmethyl]-amide] displayed an IC50 of 3720 nM.

Turning to `CN1CCN(C(=O)c2ccc(Nc3nc(CNC(=O)[C@@H]4CCCN4S(=O)(=O)c4ccc(F)cc4)cc(-c4ccc5c(c4)OCO5)n3)cc2)CC1` [Example 288, 1-(4-Fluoro-benzenesulfonyl)-pyrrolidine-2S-carboxylic acid {6-benzo[1,3]dioxol-5-yl-2-[4-(4-methyl-piperazine-1-carbonyl)-phenylamino]-pyrimidin-4-ylmethyl}-amide], the IC50 is over 10000 nM.

With `CC(C)CN(CCO)c1nc(CNC(=O)[C@@H]2CCCN2S(=O)(=O)c2ccc(F)cc2)cc(-c2ccc(Br)cc2)n1` [Example 289, 1-(4-Fluoro-benzenesulfonyl)-pyrrolidine-2S-carboxylic acid {6-(4-bromo-phenyl)-2-[(2-hydroxy-ethyl)-isobutyl-amino]-pyrimidin-4-ylmethyl}-amide], the IC50 was about 3470 nM.

`O=C(NCc1cc(-c2ccc(Br)cc2)nc(NC2CC2)n1)[C@@H]1CCCN1S(=O)(=O)c1ccc(F)cc1` [Example 290, 1-(4-Fluoro-benzenesulfonyl)-pyrrolidine-2S-carboxylic acid [6-(4-bromo-phenyl)-2-cyclopropylamino-pyrimidin-4-ylmethyl]-amide] registered a 50% inhibitory concentration (IC50) of about 708 nM.

In turn, `C#CCNc1nc(CNC(=O)[C@@H]2CCCN2S(=O)(=O)c2ccc(F)cc2)cc(-c2ccc(C(F)(F)F)cc2)n1` [Example 291] showed an IC50 of about 407 nM.

In turn, `O=C(NCc1cc(-c2ccc3c(c2)OCO3)nc(NCCc2ccc(Cl)cc2Cl)n1)[C@@H]1CCCN1S(=O)(=O)c1ccc(F)cc1` [Example 292, 1-(4-Fluoro-benzenesulfonyl)-pyrrolidine-2S-carboxylic acid {6-benzo[1,3]dioxol-5-yl-2-[2-(2,4-dichloro-phenyl)-ethylamino]-pyrimidin-4-ylmethyl}-amide] showed an IC50 of over 10000 nM.

The molecule `O=C(NCc1cc(-c2ccc(Br)cc2)nc(NCCO)n1)[C@@H]1CCCN1S(=O)(=O)c1ccc(F)cc1` [Example 293, 1-(4-Fluoro-benzenesulfonyl)-pyrrolidine-2S-carboxylic acid [6-(4-bromo-phenyl)-2-(2-hydroxy-ethylamino)-pyrimidin-4-ylmethyl]-amide] came in with a half-inhibitory concentration (IC50) of 2690 nM.

The molecule `O=C(NCc1cc(-c2ccc(C(F)(F)F)cc2)nc(NCc2cccnc2)n1)[C@@H]1CCCN1S(=O)(=O)c1ccc(F)cc1` [Example 294, 1-(4-Fluoro-benzenesulfonyl)-pyrrolidine-2S-carboxylic acid [2-[(pyridin-3-ylmethyl)-amino]-6-(4-trifluoromethyl-phenyl)-pyrimidin-4-ylmethyl]-amide] returned an IC50 of about 1000 nM.

For `O=C(NCc1cc(-c2ccc(Br)cc2)nc(NCCc2ccccn2)n1)[C@@H]1CCCN1S(=O)(=O)c1ccc(F)cc1` [Example 295, 1-(4-Fluoro-benzenesulfonyl)-pyrrolidine-2S-carboxylic acid [6-(4-bromo-phenyl)-2-(2-pyridin-2-yl-ethylamino)-pyrimidin-4-ylmethyl]-amide], the IC50 was found to be 1740 nM.

In turn, `CC1CCN(c2nc(CNC(=O)[C@@H]3CCCN3S(=O)(=O)c3ccc(F)cc3)cc(-c3ccc(Br)cc3)n2)CC1` [Example 296, 1-(4-Fluoro-benzenesulfonyl)-pyrrolidine-2S-carboxylic acid [6-(4-bromo-phenyl)-2-(4-methyl-piperidin-1-yl)-pyrimidin-4-ylmethyl]-amide] displayed a half-maximal inhibitory concentration (IC50) of 4470 nM. Against the preceding molecule, the IC50 is about 2.6-fold higher.

Regarding `O=C(NCc1cc(-c2ccc(C(F)(F)F)cc2)nc(N2CCN(Cc3ccc4c(c3)OCO4)CC2)n1)[C@@H]1CCCN1S(=O)(=O)c1ccc(F)cc1` [Example 297, 1-(4-Fluoro-benzenesulfonyl)-pyrrolidine-2S-carboxylic acid [2-(4-benzo[1,3]dioxol-5-ylmethyl-piperazin-1-yl)-6-(4-trifluoromethyl-phenyl)-pyrimidin-4-ylmethyl]-amide], the IC50 amounted to 355 nM.
